Experimental data taken from patent US20230278972A1, “SUBSTITUTED HALOALKYL SULFONANILIDE HERBICIDES” (FMC Corporation, priority 2020, published 2023).

Columns and labels:
Type in all cases: in vivo
[1] = tested on: blackgrass (Alopecurus myosuroides); experiment: Test A1 preemergence, blackgrass
Text: (§1) Seeds of plant species selected from, blackgrass (Alopecurus myosuroides), corn (Zea mays), Foxtail, Giant (giant foxtail, Setaria faberi), goosegrass (Eleusine indica), kochia (Bassia scoparia), Oat, Wild (wild oat, Avena fatua), Pigweed, Palmer (palmer amaranth, palmer pigweed, Amaranthus palmeri), ragweed (common ragweed, Ambrosia artemisiifolia), Ryegrass, Italian (Italian ryegrass, Lolium multiflorum), soybean (Glycine max), and wheat (Triticum aestivum) were planted into a blend of loam soil and sand and treated preemergence with a directed soil spray using test chemicals formulated in a non-phytotoxic solvent mixture which included a surfactant. At the same time, plants selected from these crop and weed species and also galium (catchweed bedstraw, Galium aparine) and horseweed (Erigeron canadensis) were planted in pots containing the same blend of loam soil and sand and treated with postemergence applications of test chemicals formulated in the same manner. Plants ranged in height from 2 to 10 cm and were in the one- to two-leaf stage for the postemergence treatment. […] A dash (-) response means no test result.

corn (Zea mays) [2] = experiment: Test A1 preemergence, corn
Text: as §1

[3] = tested on: Foxtail, Giant (giant foxtail, Setaria faberi); experiment: Test A1 preemergence, Foxtail, Giant
Text: as §1

[4] = tested on: goosegrass (Eleusine indica); experiment: Test A1 preemergence, goosegrass
Text: as §1

kochia (Bassia scoparia) [5] = experiment: Test A1 preemergence, kochia
Text: as §1

[6] = tested on: Oat, Wild (wild oat, Avena fatua); experiment: Test A1 preemergence, Oat, Wild
Text: as §1

[7] = tested on: Pigweed, Palmer (palmer amaranth, palmer pigweed, Amaranthus palmeri); experiment: Test A1 preemergence, Pigweed, Palmer
Text: as §1

[8] = tested on: ragweed (common ragweed, Ambrosia artemisiifolia); experiment: Test A1 preemergence, ragweed
Text: as §1

[9] = tested on: Ryegrass, Italian (Italian ryegrass, Lolium multiflorum); experiment: Test A1 preemergence, Ryegrass, Italian
Text: as §1

soybean (Glycine max) [10] = experiment: Test A1 preemergence, soybean
Text: as §1

[11] = tested on: wheat (Triticum aestivum); experiment: Test A1 preemergence, wheat
Text: as §1

[12] = tested on: blackgrass (Alopecurus myosuroides); experiment: Test A1 postemergence, blackgrass; conditions: Postemergence, 0 to 100 scale (0 no effect, 100 complete control)
Text: as §1

corn (Zea mays) [13] = experiment: Test A1 postemergence, corn; conditions: Postemergence
Text: as §1

[14] = tested on: Foxtail, Giant (giant foxtail, Setaria faberi); experiment: Test A1 postemergence, Foxtail, Giant; conditions: for Plant response rating, Foxtail, Giant: Postemergence
Text: as §1

[15] = tested on: goosegrass (Eleusine indica); experiment: Test A1 postemergence, goosegrass; conditions: for Plant response rating, Goosegrass: Postemergence
Text: as §1

kochia (Bassia scoparia) [16] = experiment: Test A1 postemergence, kochia; conditions: for Plant response rating, Kochia: Postemergence
Text: as §1

[17] = tested on: Oat, Wild (wild oat, Avena fatua); experiment: Test A1 postemergence, Oat, Wild; conditions: for Plant response rating, Oat, Wild: Postemergence
Text: as §1

[18] = tested on: Pigweed, Palmer (palmer amaranth, palmer pigweed, Amaranthus palmeri); experiment: Test A1 postemergence, Pigweed, Palmer; conditions: for Plant response rating, Pigweed, Palmer: Postemergence
Text: as §1

[19] = tested on: ragweed (common ragweed, Ambrosia artemisiifolia); experiment: Test A1 postemergence, ragweed; conditions: for Plant response rating, Ragweed: Postemergence
Text: as §1

[20] = tested on: Ryegrass, Italian (Italian ryegrass, Lolium multiflorum); experiment: Test A1 postemergence, Ryegrass, Italian; conditions: for Plant response rating, Ryegrass, Italian: Postemergence
Text: as §1

soybean (Glycine max) [21] = experiment: Test A1 postemergence, soybean; conditions: for Plant response rating, Soybean: Postemergence
Text: as §1

[22] = tested on: wheat (Triticum aestivum); experiment: Test A1 postemergence, wheat; conditions: for Plant response rating, Wheat: Postemergence
Text: as §1

[23] = tested on: galium (catchweed bedstraw, Galium aparine); experiment: Test A1 postemergence, galium; conditions: for Plant response rating, Galium: Postemergence
Text: as §1

[24] = tested on: barnyardgrass (Echinochloa crus-galli); experiment: Test B1 flooded paddy test, barnyardgrass; conditions: 250 g ai/ha, Flood, applied to paddy water, 2-leaf stage, visually evaluated after 10 to 14 days
Text: (§2) A dash (-) response means no test result.

[25] = tested on: ducksalad (Heteranthera limosa); experiment: Test B1 flooded paddy test, ducksalad; conditions: 250 g ai/ha, Flood, applied to paddy water, 2-leaf stage, visually evaluated after 10 to 14 days
Text: as §2

rice (Oryza sativa) = experiment: Test B1 flooded paddy test, rice; conditions: 250 g ai/ha, Flood, applied to paddy water, 2-leaf stage, visually evaluated after 10 to 14 days
Text: as §2

[26] = 125 g ai/ha, 0 to 100 scale, 0 no effect, 100 complete control
[27] = 500 g ai/ha, 0 to 100 scale (0 no effect, 100 complete control)
[28] = 125 g ai/ha, 0 to 100 scale (0 no effect, 100 complete control), 10 days
[29] = 31 g ai/ha, 0 to 100 scale (0 no effect, 100 complete control)
[30] = 31 g ai/ha, postemergence, 0 to 100 scale (0 no effect, 100 complete control)

Cc1cc(C)c(N(COC(=O)C(C)(C)C)S(=O)(=O)C(F)(F)F)cc1N1CCC2(CCC(F)(F)CC2)C1=O [Compound 397]
Plant response rating, Blackgrass [1, 26]: 40
Plant response rating, Blackgrass [1, 27]: 90
Plant response rating, Corn (corn (Zea mays) [2]; [26]): 10
Plant response rating, Corn (corn (Zea mays) [2]; [27]): 60
Plant response rating, Foxtail, Giant [3, 26]: 100
Plant response rating, Foxtail, Giant [3, 27]: 100
Plant response rating, Goosegrass [4, 26]: 100
Plant response rating, Goosegrass [4, 27]: 100
Plant response rating, Kochia (kochia (Bassia scoparia) [5]; [26]): 90
Plant response rating, Kochia (kochia (Bassia scoparia) [5]; [27]): 100
Plant response rating, Oat, Wild [6, 26]: 20
Plant response rating, Oat, Wild [6, 27]: 90
Plant response rating, Pigweed, Palmer [7, 26]: 90
Plant response rating, Pigweed, Palmer [7, 27]: 100
Plant response rating, Ragweed [8, 26]: 90
Plant response rating, Ragweed [8, 27]: 90
Plant response rating, Ryegrass, Italian [9, 26]: 100
Plant response rating, Ryegrass, Italian [9, 27]: 100
Plant response rating, Soybean (soybean (Glycine max) [10]; [26]): 40
Plant response rating, Soybean (soybean (Glycine max) [10]; [27]): 80
Plant response rating, Wheat [11, 26]: 20
Plant response rating, Wheat [11, 27]: 100
Plant response rating, Blackgrass ([12]; 125 g ai/ha, 10 days): 40
Plant response rating, Blackgrass ([12]; 500 g ai/ha): 90
Plant response rating, Corn (corn (Zea mays) [13]; [28]): 10
Plant response rating, Corn (corn (Zea mays) [13]; 500 g ai/ha, 0 to 100 scale): 10
Plant response rating, Foxtail, Giant [14, 28]: 20
Plant response rating, Foxtail, Giant ([14]; 500 g ai/ha, 0 to 100 scale): 70
Plant response rating, Goosegrass [15, 28]: 90
Plant response rating, Goosegrass ([15]; 500 g ai/ha, 0 to 100 scale): 90
Plant response rating, Kochia (kochia (Bassia scoparia) [16]; [28]): 90
Plant response rating, Kochia (kochia (Bassia scoparia) [16]; 500 g ai/ha, 0 to 100 scale): 90
Plant response rating, Oat, Wild [17, 28]: 10
Plant response rating, Oat, Wild ([17]; 500 g ai/ha, 0 to 100 scale): 0
Plant response rating, Pigweed, Palmer [18, 28]: 80
Plant response rating, Pigweed, Palmer ([18]; 500 g ai/ha, 0 to 100 scale): 100
Plant response rating, Ragweed [19, 28]: 80
Plant response rating, Ragweed ([19]; 500 g ai/ha, 0 to 100 scale): 80
Plant response rating, Ryegrass, Italian [20, 28]: 50
Plant response rating, Ryegrass, Italian ([20]; 500 g ai/ha, 0 to 100 scale): 80
Plant response rating, Soybean (soybean (Glycine max) [21]; [28]): 50
Plant response rating, Soybean (soybean (Glycine max) [21]; 500 g ai/ha, 0 to 100 scale): 60
Plant response rating, Wheat [22, 28]: 60
Plant response rating, Wheat ([22]; 500 g ai/ha, 0 to 100 scale): 70
Plant response rating, Galium [23, 28]: 100
Plant response rating, Galium ([23]; 500 g ai/ha, 0 to 100 scale): 100
Plant response rating, Barnyardgrass (0 to 100 scale, 0 is no effect, 100 is complete control) [24]: 90
Plant response rating, Ducksalad (0 to 100 scale, 0 is no effect, 100 is complete control) [25]: 75
Plant response rating, Rice (0 to 100 scale, 0 is no effect, 100 is complete control) (rice (Oryza sativa)): 0

COC1CCN(C(=O)c2cc(NS(=O)(=O)C(F)(F)F)c(C)c(C)c2C)CC1 [Compound 367]
Plant response rating, Blackgrass [1, 29]: 0
Plant response rating, Blackgrass [1, 26]: 0
Plant response rating, Corn (corn (Zea mays) [2]; [29]): 10
Plant response rating, Corn (corn (Zea mays) [2]; [26]): 90
Plant response rating, Foxtail, Giant [3, 29]: 90
Plant response rating, Foxtail, Giant [3, 26]: 100
Plant response rating, Goosegrass [4, 29]: 60
Plant response rating, Goosegrass [4, 26]: 80
Plant response rating, Kochia (kochia (Bassia scoparia) [5]; [29]): 0
Plant response rating, Kochia (kochia (Bassia scoparia) [5]; [26]): 20
Plant response rating, Oat, Wild [6, 29]: 20
Plant response rating, Oat, Wild [6, 26]: 30
Plant response rating, Pigweed, Palmer [7, 29]: 80
Plant response rating, Pigweed, Palmer [7, 26]: 100
Plant response rating, Ragweed [8, 29]: 20
Plant response rating, Ragweed [8, 26]: 90
Plant response rating, Ryegrass, Italian [9, 29]: 0
Plant response rating, Ryegrass, Italian [9, 26]: 20
Plant response rating, Soybean (soybean (Glycine max) [10]; [29]): 0
Plant response rating, Soybean (soybean (Glycine max) [10]; [26]): 90
Plant response rating, Wheat [11, 29]: 10
Plant response rating, Wheat [11, 26]: 40
Plant response rating, Blackgrass ([12]; 31 g ai/ha, 10 days): 0
Plant response rating, Blackgrass ([12]; 125 g ai/ha): 0
Plant response rating, Corn (corn (Zea mays) [13]; 31 g ai/ha, 0 to 100 scale (0 no effect, 100 complete control), 10 days): 0
Plant response rating, Corn (corn (Zea mays) [13]; 125 g ai/ha, 0 to 100 scale): 70
Foxtail, Giant plant response rating [14, 30]: 10
Plant response rating, Foxtail, Giant ([14]; 125 g ai/ha, 0 to 100 scale): 90
Goosegrass plant response rating [15, 30]: 10
Plant response rating, Goosegrass ([15]; 125 g ai/ha, 0 to 100 scale): 70
Kochia plant response rating (kochia (Bassia scoparia) [16]; [30]): 20
Plant response rating, Kochia (kochia (Bassia scoparia) [16]; 125 g ai/ha, 0 to 100 scale): 30
Oat, Wild plant response rating [17, 30]: 0
Plant response rating, Oat, Wild ([17]; 125 g ai/ha, 0 to 100 scale): 0
Pigweed, Palmer plant response rating [18, 30]: 40
Plant response rating, Pigweed, Palmer ([18]; 125 g ai/ha, 0 to 100 scale): 40
Ragweed plant response rating [19, 30]: 50
Plant response rating, Ragweed ([19]; 125 g ai/ha, 0 to 100 scale): 70
Ryegrass, Italian plant response rating [20, 30]: 0
Plant response rating, Ryegrass, Italian ([20]; 125 g ai/ha, 0 to 100 scale): 0
Soybean plant response rating (soybean (Glycine max) [21]; [30]): 50
Plant response rating, Soybean (soybean (Glycine max) [21]; 125 g ai/ha, 0 to 100 scale): 80
Wheat plant response rating [22, 30]: 0
Plant response rating, Wheat ([22]; 125 g ai/ha, 0 to 100 scale): 20
Galium plant response rating [23, 30]: 50
Plant response rating, Galium ([23]; 125 g ai/ha, 0 to 100 scale): 100
Plant response rating, Barnyardgrass (0 to 100 scale, 0 is no effect, 100 is complete control) [24]: 60
Plant response rating, Ducksalad (0 to 100 scale, 0 is no effect, 100 is complete control) [25]: 80
Plant response rating, Rice (0 to 100 scale, 0 is no effect, 100 is complete control) (rice (Oryza sativa)): 15
